Experimental data: ChEMBL document CHEMBL1155575, “Kirkinine, a new daphnane orthoester with potent neurotrophic activity from Synaptolepis kirkii” (2000)

Tests used:
Format in all cases: functional, Gallus gallus
[1] = Neurotrophic activity against chick embryo dorsal root ganglion assessed as neuronal viability at 7000 nM after 2 days by Calcein-AM assay
[2] = Neurotrophic activity against chick embryo dorsal root ganglion assessed as neuronal viability at 700 nM after 2 days by Calcein-AM assay
[3] = Neurotrophic activity against chick embryo dorsal root ganglion assessed as neuronal viability at 70 nM after 2 days by Calcein-AM assay

Work on `C=C(C)[C@@]12O[C@@]3(/C=C/CCCCCCCCCCCCC)O[C@@H]1[C@@H]1[C@@H]4O[C@]4(CO)[C@@H](O)[C@]4(O)C(=O)C(C)=C[C@H]4[C@@]1(O3)[C@H](C)[C@H]2OC(C)=O` [KIRKININE] yielded an Activity [1] of 142%, an Activity [2] of 103% and an Activity [3] of 57%.
